Reference: article doi:10.1101/2023.08.31.555663, “Computational exploration of the global microbiome for antibiotic discovery” (bioRxiv, 2023)
Where a SMILES comes first, the peptide text is derived from it. Bridges are numbered along the chain shown (N, C = ends). [ ]: non-standard residue; d: D form. The star is where a group is joined. X1 = CC[C@H](C)CCCCC(=O)*; Dab = NCC[C@H](N)C(=O)O

Assays:
[1] = test system: A. baumannii ATCC 19606; experiment: Skin abscess infection mouse model; format: in vivo; details: CD-1 mice, n=3
Experimental: Figure 7. Anti-infective activity of AMPs in pre-clinical animal model. (A) Schematic of the skin abscess mouse model used to assess the anti-infective activity of the peptides against A. baumannii cells. (B) Peptides were tested at their MIC in a single dose one hour after the establishment of the infection. Each group consisted of three mice n=3 and the bacterial loads used to infect each mouse derived from a different inoculum. (C) To rule out toxic effects of the peptides, mouse weight was monitored throughout the experiment. Statistical significance in (B) was determined using one-way ANOVA where all groups were compared to the untreated control group; P-values are shown for each of the groups. Features on the violin plots represent median and upper and lower quartiles. Data in (C) are the mean ± the standard deviation. Figure created in BioRender.com. […]
To assess the anti-infective efficacy of the peptides against A. baumannii ATCC 19606 in a skin abscess infection mouse model, the bacteria were cultured in tryptic soy broth (TSB) medium until an OD600 of 0.5 was reached. […] The animals were euthanized two- and four-days post-infection, and the infected area was extracted and homogenized for 20 min using a bead beater (25 Hz) and 10-fold serially diluted for CFU quantification on MacConkey agar plates for easy differentiation of A. baumannii colonies. […]

[2] = test system: Acinetobacter baumannii ATCC 19606; details: broth microdilution, LB broth, 24 h at 37 °C, two-fold dilutions 64 to 1 μmol·L^−1, absorbance 600 nm, mode of three independent replicates
Experimental: Amino acid composition, structure, antimicrobial activity, and mechanism of action of c_AMPs. […] (AC) Activity of c_AMPs assessed against ESKAPEE pathogens and human gut commensal strains. Briefly, 10^6 CFU·mL^−1 was exposed to c_AMPs two-fold serially diluted ranging from 64 to 1 μmol·L^−1 in 96-wells plates and incubated at 37 °C for one day. After the exposure period, the absorbance of each well was measured at 600 nm. Untreated solutions were used as controls and minimal concentration values for complete inhibition were presented as a heat map of antimicrobial activities (μmol·L^−1) against 11 pathogenic and eight human gut commensal bacterial strains.

CC[C@H](C)CCCCC(=O)N[C@@H](CCN)C(=O)N[C@H](C(=O)N[C@@H](CCN)C(=O)N[C@H]1CCNC(=O)[C@H]([C@@H](C)O)NC(=O)[C@H](CCN)NC(=O)[C@H](CCN)NC(=O)[C@H](CC(C)C)NC(=O)[C@@H](Cc2ccccc2)NC(=O)[C@H](CCN)NC1=O)[C@@H](C)O [polymyxin B] (X1-[Dab]T[Dab][Dab][Dab][dF]L[Dab][Dab]T; lactam 4-C (inferred); N-terminus assumed)
Kind of anti-infective activity against A. baumannii in skin abscess ([1]; single dose at MIC on the infected area, two days post-infection): bactericidal activity
Reduction of CFU counts compared to the untreated control ([1]; skin abscess, A. baumannii, single dose at MIC, four days post-infection): 1–2 orders of magnitude
Minimal Inhibitory Concentration, A. baumannii ATCC 19606 [2]: 0.25 µmol/L
